These results are taken from ChEMBL document CHEMBL1681729, “2-aminomethylphenylamine as a novel scaffold for factor Xa inhibitor” (Bioorg Med Chem, 2011).

In brackets after ≈: the same amount, converted by molar mass.

A short description of data set [1]: Solubility of the compound in Japanese Pharmacopoeia First Fluid of pH 1.2 by HPLC. The data set is classed as physicochemical.
Data set [2] is described as follows: Solubility of the compound in Japanese Pharmacopoeia First Fluid of pH 6.8 by HPLC. The class given is physicochemical.
The nature of data set [3]: Distribution coefficient, log D of the compound at pH 7.4 by LC-MS. The class given is physicochemical. Conditions: octanol/water.
Another data set relates to Plasma. Briefly: Anticoagulant activity in human plasma assessed as concentration required to double prothrombin time. The class given is functional.
For the next data set, the target named is Coagulation factor X (Homo sapiens, UniProt P00742). The experiment in a line: Inhibition of factor 10a by S2222 chromogenic substrate assay by chromogenic assay.
The test system of data set [4] is Rattus norvegicus. The experiment in a line: Inhibition of factor 10a in overnight fasted Wistar rat plasma at 10 mg/kg, po after 0.5 hrs by S2222 chromogenic substrate assay. The class given is functional.
In data set [5] the test system is Rattus norvegicus. The experiment in a line: Inhibition of factor 10a in overnight fasted Wistar rat plasma at 10 mg/kg, po after 1 hr by S2222 chromogenic substrate assay. The data set is classed as functional.
Data set [6] concerns Rattus norvegicus. Briefly: Inhibition of factor 10a in overnight fasted Wistar rat plasma at 10 mg/kg, po after 2 hrs by S2222 chromogenic substrate assay. The class given is functional.
The test system of data set [7] is Rattus norvegicus. Briefly: Inhibition of factor 10a in overnight fasted Wistar rat plasma at 10 mg/kg, po after 4 hrs by S2222 chromogenic substrate assay. The class given is functional.
Data set [8] is described as follows: AUC (0 to 24 hrs) in serum of cynomolgus monkey at 1 mg/kg, po after 0.5 to 24 hrs. On the set-up: time < 24 hr, dose 1 mg/kg, route oral. The class given is ADME, organism-based, Macaca fascicularis.
The nature of data set [9]: Cmax in serum of cynomolgus monkey at 1 mg/kg, po after 0.5 to 24 hrs by LC/MS/MS coupled with HPLC. The data set is classed as ADME, organism-based, Macaca fascicularis. On the set-up: dose 1 mg/kg, route oral.
Data set [10] can be described thus: Tmax in serum of cynomolgus monkey at 1 mg/kg, po after 0.5 to 24 hrs. The class given is ADME, organism-based, Macaca fascicularis. Details: dose 1 mg/kg, route oral.
Data set [11] in a line: Half life in serum of cynomolgus monkey at 1 mg/kg, po after 0.5 to 24 hrs. The data set is classed as ADME, organism-based, Macaca fascicularis. On the set-up: dose 1 mg/kg, route oral.

Chain of Coagulation factor X (P00742 41-179 limits assumed): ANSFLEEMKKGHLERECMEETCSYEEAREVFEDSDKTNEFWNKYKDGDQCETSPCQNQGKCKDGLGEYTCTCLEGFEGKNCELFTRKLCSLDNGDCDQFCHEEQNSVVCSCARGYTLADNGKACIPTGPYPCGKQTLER
Chain of Coagulation factor X (P00742 235-488 limits assumed): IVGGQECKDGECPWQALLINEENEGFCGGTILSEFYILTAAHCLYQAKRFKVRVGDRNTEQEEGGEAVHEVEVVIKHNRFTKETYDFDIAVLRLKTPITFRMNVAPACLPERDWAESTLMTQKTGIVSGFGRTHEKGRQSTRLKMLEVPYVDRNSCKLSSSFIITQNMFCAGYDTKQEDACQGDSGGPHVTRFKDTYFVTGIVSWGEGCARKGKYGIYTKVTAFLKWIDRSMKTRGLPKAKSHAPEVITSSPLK

A word on the solubility: it is how much of the substance goes into solution per volume. As a reminder, the logD is the decadic logarithm of the distribution of all forms, ionised or not, between an organic phase and buffer at a given pH. What is called IC50 is the concentration needed to halve the response being measured. On to `CN1CCc2nc(NC(=O)c3ccccc3CNC(=O)c3ccc(Cl)s3)sc2C1`, for which the solubility in data set [1] was more than 640 µg/mL; in [2], 100 µg/mL (≈ 224 µM). The same molecule gave a logD in data set [3] of 2.9. The Activity in the data set on Plasma amounted to 2.3 µM. Moreover, the IC50 on Coagulation factor X is 59 nM.

In the case of `CC(C)N1CCC(C(=O)Nc2ccccc2CNC(=O)c2ccc(Cl)s2)CC1`, the solubility in data set [1] and in data set [2] was more than 680 µg/mL in each case. The molecule also yielded a logD in [3] of 1.5. The Activity with Plasma came out at 5.2 µM. Also, at Coagulation factor X, the IC50 turned out to be 204 nM.

For the molecule `CN1CCc2nc(C(=O)N[C@@H]3CCCC[C@@H]3CNC(=O)c3ccc(Cl)s3)sc2C1` (relative stereo), the solubility in data set [1] stood at 800 µg/mL (≈ 1770 µM); in data set [2] it was 290 µg/mL (≈ 640 µM). For the same molecule, the logD in data set [3] turned out to be 3.7. Moreover, the Activity in the data set on Plasma came to 3.4 µM. Moreover, at Coagulation factor X, the IC50 was 27 nM.

For the molecule `CN1CCc2nc(C(=O)Nc3ccccc3CNC(=O)c3ccc(Cl)s3)sc2C1`, the solubility amounted to 150 µg/mL (≈ 336 µM) in data set [1] and 17 µg/mL (≈ 38 µM) in data set [2]. This molecule also had a logD in [3] of 3.3.

For `CN1CCc2nc(C(=O)Nc3ccccc3CNC(=O)c3ccc(Cl)cn3)sc2C1`, the solubility in data set [1] stood at 350 µg/mL (≈ 792 µM); in [2], 380 µg/mL (≈ 860 µM). The molecule further displayed a logD in [3] of 2.8. Moreover, half-maximal inhibition at Coagulation factor X (IC50) was put at 2480 nM.

As for `CN1CCc2nc(C(=O)Nc3ccccc3CNC(=O)c3cc(Cl)c[nH]3)sc2C1`, the solubility was 690 µg/mL (≈ 1600 µM) in [1] and 170 µg/mL (≈ 395 µM) in [2]. The logD in data set [3] came out at 3.2. Also, the Activity in the data set with Plasma is 2.2 µM. In addition, the IC50 against Coagulation factor X stood at 48 nM.

On to `CC(C)N1CCC(NC(=O)c2ccccc2CNC(=O)c2ccc(Cl)s2)CC1`, for which the solubility was 810 µg/mL (≈ 1930 µM) in data set [1] and more than 820 µg/mL in data set [2]. The same molecule yielded a logD in data set [3] of 1.4. The same molecule had an IC50 against Coagulation factor X of 1930 nM.

Regarding `CN1CCc2nc(C(=O)Nc3cnccc3CNC(=O)c3ccc(Cl)s3)sc2C1`, the solubility in data set [1] and in data set [2] was more than 590 µg/mL each time. The molecule also returned a logD in data set [3] of 2.6. For the same molecule, the Activity with Plasma is 1.8 µM. The molecule also showed an IC50 on Coagulation factor X of 13 nM.

Consider `O=C(NCc1ccccc1C(=O)Nc1ccc(N2CCOCC2=O)cc1)c1ccc(Cl)s1`, for which the results for the solubility in data set [1] and in data set [2] were 140 µg/mL (≈ 298 µM) and 120 µg/mL (≈ 255 µM), respectively. The same molecule showed a logD in data set [3] of 2.5. Besides, the Activity in the data set with Plasma was found to be 1 µM. Besides, on Coagulation factor X, the IC50 was found to be 9 nM.

For the molecule `CN1CCc2nc(C(=O)Nc3ccccc3CNC(=O)c3ccc(Cl)[nH]3)sc2C1`, the solubility was more than 810 µg/mL in [1] and 33 µg/mL (≈ 76.8 µM) in [2]. In data set [3], this molecule returned a logD of 3.1. On Coagulation factor X, this molecule returned an IC50 of more than 10000 nM.

Take `CN1CCc2nc(C(=O)Nc3ccccc3CC(=O)Nc3ccc(Cl)cn3)sc2C1`: the solubility in [1] came to 600 µg/mL (≈ 1360 µM); in data set [2], 100 µg/mL (≈ 226 µM). Besides, the logD in data set [3] came out at 2.8. The Activity in the data set on Plasma amounted to 17 µM. The molecule also showed an IC50 against Coagulation factor X of 623 nM.

For `CN1CCc2nc(C(=O)Nc3ccncc3CNC(=O)c3ccc(Cl)s3)sc2C1`, the figures for the solubility in data set [1] and in data set [2] were 880 µg/mL (≈ 1960 µM) and more than 4.9 µg/mL, respectively. The logD in data set [3] turned out to be 3.3. For the same molecule, the Activity in the data set on Plasma is 1.4 µM. On Coagulation factor X, this molecule returned an IC50 of 12 nM.

With `CN1CCc2nc(C(=O)Nc3ncccc3CNC(=O)c3ccc(Cl)s3)sc2C1`, the results for the solubility in [1] and in [2] were 860 µg/mL (≈ 1920 µM) and 120 µg/mL (≈ 268 µM), respectively. This molecule returned a logD in [3] of 2.2. In addition, in the data set on Plasma, the Activity worked out at 1.5 µM. At Coagulation factor X, this molecule gave a 50% inhibitory concentration (IC50) of 18 nM.

On to `CN1CCc2nc(C(=O)Nc3ccccc3CNC(=O)c3cc(Cl)ccn3)sc2C1`, for which the solubility in data set [1] worked out at 760 µg/mL (≈ 1720 µM); in data set [2], 150 µg/mL (≈ 339 µM). The molecule also yielded a logD in [3] of 2.7. The IC50 against Coagulation factor X came to 4150 nM.

`CN1CCc2nc(C(=O)Nc3ccccc3CNC(=O)c3ccc(Cl)cc3)sc2C1`: the values for the solubility in data set [1] and in data set [2] were 560 µg/mL (≈ 1270 µM) and 42 µg/mL (≈ 95.2 µM), respectively. This molecule also displayed a logD in data set [3] of 3.4. Besides, at Coagulation factor X, half-maximal inhibition (IC50) required 642 nM.

What is called inhibition in vivo is how much of the control response was suppressed. As to `O=C(Nc1ccccc1CNC(=O)c1ccc(Cl)s1)c1ccc(N2CCOCC2=O)cc1`, the solubility in data set [1] and in [2] was less than 2.3 µg/mL each time. The molecule also came in with a logD in [3] of 2.8. In addition, the inhibition in vivo at 10 mg/kg in the data set with Rattus norvegicus [4] came out at 17.1%; in the data set with Rattus norvegicus [5] it was 14.1%; in the data set on Rattus norvegicus [6], 12.7%; with Rattus norvegicus [7] it was 12.7%. Further, the Activity in the data set on Plasma stood at 0.91 µM. At Coagulation factor X, this molecule yielded an IC50 of 4.1 nM.

As for `CN1CCc2nc(C(=O)N[C@@H]3CCCC[C@H]3CNC(=O)c3ccc(Cl)s3)sc2C1` (relative stereo), the solubility in [1] is more than 600 µg/mL; in data set [2] it was 440 µg/mL (≈ 971 µM). The molecule further came in with a logD in data set [3] of 3.5. Besides, in the data set on Plasma, the Activity is 17 µM. The same molecule registered an IC50 against Coagulation factor X of 439 nM.

With `CN1CCc2nc(C(=O)N3CCC(NC(=O)c4ccc(Cl)s4)CC3)sc2C1`, the Activity with Plasma was more than 20 µM. The molecule also gave an IC50 on Coagulation factor X of 1020 nM.

The AUC(0-t) is exposure summed from dosing to a finite time, without extrapolation to infinity. As usually defined, the Cmax is the maximum level reached in the sampled fluid or tissue. The term Tmax denotes the time from dosing to the highest level. By half-life is commonly meant the time in which the quantity being followed falls by half. With `CN1CCc2nc(C(=O)Nc3ccccc3CNC(=O)c3ccc(Cl)s3)sc2C1.Cl`, the AUC(0-t) at 24 h in [8] is 697 ng·h/mL. Also, the highest level in data set [9] (Cmax) was 83.7 ng/mL. Moreover, in data set [10], the Tmax stood at 30 min. This molecule also had a half-life in data set [11] of 228 min.

Consider `CN1CCc2nc(C(=O)Nc3cccnc3CNC(=O)c3ccc(Cl)s3)sc2C1`, for which the solubility in [1] is 890 µg/mL (≈ 1990 µM); in data set [2] it was 67 µg/mL (≈ 150 µM). The molecule also displayed a logD in [3] of 2.8. Besides, the Activity with Plasma turned out to be 1 µM. On Coagulation factor X, this molecule registered an IC50 of 11 nM.

Turning to `CN1CCc2nc(C(=O)Nc3ccccc3CNC(=O)c3cccc(Cl)c3)sc2C1`, the results for the solubility in data set [1] and in data set [2] were 680 µg/mL (≈ 1540 µM) and 160 µg/mL (≈ 363 µM), respectively. The molecule also had a logD in data set [3] of 3.3. For the same molecule, the IC50 against Coagulation factor X was 1620 nM.

For the molecule `CN1CCc2nc(C(=O)NCCCNC(=O)c3ccc(Cl)s3)sc2C1`, the Activity in the data set with Plasma worked out at 7.6 µM. Also, at Coagulation factor X, the IC50 was 93 nM.

The molecule `CN1CCc2nc(C(=O)NCc3ccccc3NC(=O)c3ccc(Cl)s3)sc2C1` displayed an IC50 against Coagulation factor X of 5680 nM.

On to `CN1CCc2nc(C(=O)N3CCCC(CNC(=O)c4ccc(Cl)s4)C3)sc2C1` (stereo unspecified), for which it took 6830 nM to reach half-maximal inhibition against Coagulation factor X (IC50).
